Assay [1] relates to human fibroblasts. Description: DNA content of human fibroblasts (Desaulniers method). It is filed as cell-based. Conditions: 0.001 % w/v; for DNA after 3 d: compared to blank sample = 100, after 3 d; for DNA after 6 d: compared to blank sample = 100, after 6 d. An excerpt: (§1) The enzyme glucose-6-phosphate dehydrogenase (G6PDH) catalyzes the first step of the so-called “pentose pathway”, in which an important DNA component, namely deoxyribose, is formed. Glucose 6-phosphate (G6P) is thereby converted into 6-phosphogluconate (6PG) by means of G6PDH. At the same time, the coenzyme NADP required thereby is reduced to NADPH2, which in turn is able to catalyze a large number of other biological reactions such as, for example, the recycling of glutathione or lipid synthesis. Reduced glutathione protects many enzymes which have SH groups and cells against oxidative stress, such as, for example, the action of UV. The G6PDH content is thus an important parameter for cell protection and skin renewal. G6PDH activity was determined in vitro on human fibroblasts by the enzymatic method of Okada, while the DNA content was determined by the Desaulniers method. The results of 3 series of measurements with triple determination are given in %-rel. compared to a blank sample.

Assay [2] deals with glucose-6-phosphate dehydrogenase (G6PDH). Description: G6PDH activity in vitro on human fibroblasts (enzymatic method of Okada). It is filed as cell-based. Conditions: 0.001 % w/v; for G6PDH after 3 d: compared to blank sample = 100, after 3 d; for G6PDH after 6 d: compared to blank sample = 100, after 6 d.
Excerpt: as §1

Assay [3] concerns human fibroblasts and human keratinocytes. In words: Inhibition of apoptosis induced by growth factor deficiency (cell count, BrdU ELISA of cytoplasmic DNA fragments). The class given is cell-based. The note with it: 0.001 % w/v, in comparison to the control = 100; for Content of DNA fragments: BrdU in cytoplasmic DNA fragments, based on a million cells. An excerpt: Apoptosis, unlike necrosis, is the natural purposive cell death of specific undesired or damaged cells. It is an active process of the cells (suicide on command). In the case of skin ageing especially, a deficiency of growth factors in the skin leads to induced apoptosis of the skin cells. In the cells affected by apoptosis, the nuclear DNA is degraded by the specific enzyme endonuclease and the DNA fragments are passed into the cytoplasm.
The ability of carnosines to prevent apoptosis induced by a deficiency of growth factors in human skin cells was studied. These tests were carried out in vitro on human fibroblasts and human keratinocytes. The human cells were cultivated in a nutrient medium (DMEM=Dulbecco minimum essential medium from Life Technologie Sarl) with 10% fetal calf serum (from Dutcher). Bromodeoxyuridine (BrdU) was added to the nutrient medium; it was incorporated into the DNA and later served for detection of the DNA fragments in the cytoplasm. After an incubation period of two days, the nutrient medium was replaced by nutrient medium (DMEM) without fetal calf serum. The active substance to be tested was added. For comparison, a cell sample without active substance to be tested was incubated.
After a further incubation period of one or two days at 37° C., the cells were recovered by trypsinization according to the method of Dunnebacke and Zitcer described in: Cell and tissue culture, Ed.: J. Paul, Churchill Livingstone, 1975, p. 226. After the trypsinization, the cells were centrifuged and counted. Then the content of BrdU in the DNA fragments from the cytoplasm was determined by means of the ELISA test (ELISA kit from Roche). The content of BrdU is a measure of the DNA fragments which have passed from the nucleus, the cell core, into the cytoplasm. The results were based on a million cells and given in percent in comparison to the control.
On the technique in general: Dividing cells build labelled thymidine or BrdU into new DNA.

The test system of assay [4] is human fibroblasts. Description: Synthesis of dermal macromolecules (GAG) in collagen gel containing human fibroblasts. The class given is cell-based. Conditions: 0.5% by weight FCS + 0.01% by weight substance; for Density, 14 days: relative density of collagen gel (0=clear or white, 1=black). The text has this: The dermis is composed of cells (fibroblasts and mast cells), tissue components (collagen and elastin) and so-called ground substances. These ground substances include, for example, glycosaminoglycan (GAG), hyaluronic acid, chondroitin sulfate, dermatan sulfate and glycoproteins. As a result of skin ageing, the intermolecular strength and elasticity of the dermis, and thus the tautness of the skin, is reduced. Likewise, the number of skin cells present, in particular fibroblasts, is reduced as the skin ages. The collagen fibers are fragmented over time, and the proportion of insoluble to soluble collagen increases. The fine dermal elastic fibers become coarse and are destroyed. The synthesis of GAG (glycosaminoglycan) is reduced. All these processes contribute to skin ageing and the manifestations thereof, such as wrinkles and lack of tautness of the skin.
The measuring method is based on staining macromolecules in a culture of human fibroblasts which, with type I collagen, forms a collagen gel or collagen lattice fibers. Certain regions of those fibers are quantified by means of staining reagents for the proportion of the mentioned macromolecules.
For that purpose, a suspension of human fibroblasts was mixed with a solution of type I collagen (1-2 mg/ml). This mixture was incubated in a defined nutrient medium (DMEM=Dulbecco minimum essential medium, Life Technologie Sarl) comprising 0.5 or 2% by weight fetal calf serum (FCS) for 14 days at 37° C. in a 5% CO2 atmosphere in Petri dishes (5 ml per dish) with the addition of different concentrations of the plant extracts to be tested.
The kinetics of the collagen gel […] was determined 2 to 3 times per week by measuring two perpendicular diameters on each collagen gel using a microscope with an image analysis system. The size of the area is shown in cm^2 in Table 8. After incubation for 14 days, the density of the collagen gel was determined by image analysis with a light source of visible light, by comparatively analyzing different gray stages. This is a relative determination of the density (0=clear or white and 1=black), which cannot be given a unit.
After an incubation period of 7 and 14 days, biopsies (tissue samples) were taken and histological sections of the collagen gel containing human fibroblasts were obtained. The synthesis of macromolecules was analyzed and quantified by the staining of glycosaminoglycan with PAS Alcian blue, for example from SIGMA, by the periodic acid-Schiff method (PAS) described in: Mowry R W, Anal. NY Adad. Sci. 106 Art 2, 402, 1963. The stimulation of the synthesis of macromolecules was evaluated in the immediate vicinity of fibroblasts. This zone is also referred to as the “perifibroblast area”.
The “perifibroblast” secretion, or the secretion of fibroblasts into the periphery, was quantified by an image analyzer by means of a microscope. Reactive structures in the “perifibroblast area” were detected, and the different gray stages were comparatively determined. The values of the gray stages were thereby subdivided from 0=white to 255=black. These parameters are directly proportional to the intensity of the synthesis of macromolecules and thus to the GAG content of the fibroblasts.
The results of the values of these parameters are shown in Table 3 below and are to be regarded directly as representative values for the synthesis activity of the fibroblasts. The content of GAGs is described as a relative value of the gray stage.

A further assay addresses pancreas elastase (Sus scrofa, UniProt P00772). Description: Inhibition of elastase activity (chromogenic labelled elastin substrate, OD 410 nm). It is filed as biochemical. Conditions: 0.3% by weight; 30 minutes at room temperature; relative to control = 0%. As for the experimental part: Elastase is a protease which is secreted by the fibroblasts under inflammatory conditions and is jointly responsible for the degradation of dermal macromolecules, such as, for example, collagen and elastin, and thus for skin ageing.
In order to determine the effectiveness of the plant extract in inhibiting the release of elastase, pancreas elastase (a serine protease) was studied and, as substrate, elastin was labeled with a chromogenic synthetic substrate. The system was incubated with the active ingredients for 30 minutes at room temperature and then, after centrifugation, the optical density of the dye at 410 nm was determined. The amount of extracts used was 0.3% by weight. The results were given relative to a control as standard (=0%); al-antitrypsin was used as the standard.

The next assay has as its system type I collagen. In words: Inhibition of the non-enzymatic glycation of collagen (Schiff's bases, fluorescence 430 nm). It is filed as biochemical. Conditions: type I collagen with glucose, 21 days at 45° C.; control with glucose 100, control without glucose 46. An excerpt: Glycation is a non-enzymatic reaction of glucose or other sugars with proteins to form glycoproteins. This reaction leads to unintentional changes in the collagen and elastin and thus to changes in the extracellular matrix. The function of the collagen and the extracellular matrix is disrupted. The prevention according to the invention of glycation leads to a reduction in the non-enzymatic change in collagen and elastin and thus to the prevention of a reduced function of the extracellular matrix.
The suspensions were then centrifuged and the content of Schiff's bases in the supernatant liquid was determined by fluorescence measurement at 430 nm. The results are again based on the control as standards (without extract and without glucose).

pancreas elastase, sequence (P00772 27-266): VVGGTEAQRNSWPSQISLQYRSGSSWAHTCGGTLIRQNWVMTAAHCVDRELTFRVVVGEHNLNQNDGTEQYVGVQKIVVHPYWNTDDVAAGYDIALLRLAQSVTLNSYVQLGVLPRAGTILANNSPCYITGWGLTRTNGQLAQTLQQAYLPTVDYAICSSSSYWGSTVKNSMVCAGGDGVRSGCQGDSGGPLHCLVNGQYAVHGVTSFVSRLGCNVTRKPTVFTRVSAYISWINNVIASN

Regarding `Cl.NCCC(=O)NCCc1cnc[nH]1` [Carnicine*HCl], in the assay on human fibroblasts [1], the “DNA after 3 d” value was determined as 106 %-rel and the “DNA after 6 d” value is recorded as 118 %-rel. Also, in assay [2], the “G6PDH after 3 d” value is 104 %-rel and the “G6PDH after 6 d” value was 109 %-rel. Moreover, the “Content of DNA fragments” value in assay [3] is 88%. In addition, in assay [3] (medium without fetal calf serum), the Cell count worked out at 118%. Moreover, the “Area, 7 days” value in the assay on human fibroblasts [4] (collagen gel area, 7 days) is listed as 9.9 cm2. In addition, the “Area, 14 days” value in the assay with human fibroblasts [4] (collagen gel area, 14 days) is recorded as 5.8 cm2. In addition, in the assay on human fibroblasts [4] (14 days), the “Density, 14 days” value was found to be 0.25. Besides, the “GAG content, 7 days” value in the assay on human fibroblasts [4] (relative value of the gray stage (0=white to 255=black), perifibroblast area, 7 days) amounted to 11.8. The “GAG content, 14 days” value with human fibroblasts [4] (relative value of the gray stage (0=white to 255=black), perifibroblast area, 14 days) is listed as 13.3. Besides, the “Elastase inhibition, Inhibition [%]” value at pancreas elastase came out at 28%. Further, the “Inhibition of the glycation of collagen, Inhibition [%]” value in the assay on type I collagen was 65%.
With `NCCC(=O)N[C@@H](Cc1cnc[nH]1)C(=O)O` [L-Carnosine], the “DNA after 6 d” value with human fibroblasts [1] is given as 120 %-rel. In assay [3], the “Content of DNA fragments” value is reported as 85%. Further, the “Density, 14 days” value in the assay on human fibroblasts [4] (14 days) amounted to 0.25. Besides, in the assay with type I collagen, the “Inhibition of the glycation of collagen, Inhibition [%]” value turned out to be 68%.
For the molecule `CCCCC(CC)COC(=O)C(C#N)=C(c1ccccc1)c1ccccc1` (stereo not drawn) [Octocrinyl, reference compound], in the assay with human fibroblasts [1], the “DNA after 3 d” value came out at 95 %-rel and the “DNA after 6 d” value was determined as 90 %-rel. Further, in assay [2], the “G6PDH after 3 d” value came out at 89 %-rel and the “G6PDH after 6 d” value is given as 85 %-rel.

The values above are taken from US10857085B2, “Preparations comprising carnosines” (Symrise AG, priority 2015, dated 2020).
